{
  "source": "paper PMC5104480",
  "about": "(PLoS ONE, 2016)",
  "key": {"[1]": {"molecular_target": "T1, HLMs, UGT1A1, UGT1A6 and UGT1A9 (Homo sapiens, UniProt P22309)", "T1 sequence (P22309 26-533)": "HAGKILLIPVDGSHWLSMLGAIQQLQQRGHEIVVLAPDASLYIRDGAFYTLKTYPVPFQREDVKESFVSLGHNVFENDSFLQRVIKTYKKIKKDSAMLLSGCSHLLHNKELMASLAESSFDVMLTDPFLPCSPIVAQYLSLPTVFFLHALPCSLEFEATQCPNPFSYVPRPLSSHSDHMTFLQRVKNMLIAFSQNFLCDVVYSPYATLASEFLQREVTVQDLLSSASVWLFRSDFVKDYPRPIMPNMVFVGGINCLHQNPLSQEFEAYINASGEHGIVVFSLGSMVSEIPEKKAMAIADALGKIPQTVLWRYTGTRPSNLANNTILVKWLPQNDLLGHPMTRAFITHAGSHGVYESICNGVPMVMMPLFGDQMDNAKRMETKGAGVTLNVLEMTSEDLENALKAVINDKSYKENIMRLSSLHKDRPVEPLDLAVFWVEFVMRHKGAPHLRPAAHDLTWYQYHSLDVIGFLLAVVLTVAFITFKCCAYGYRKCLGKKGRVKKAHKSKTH", "conditions": "HLMs and UGT1A1; substrate chrysoeriol; compared with control", "method": "(§1) The protein concentrations of the HLMs and expressed UGTs were 0.0021–0.0106 mg protein/mL. All of the incubations were run at 37°C for 30 min, and the way of pretreated and determined samples were as discribed above."}, "[2]": {"molecular_target": "T2, HLMs, UGT1A1, UGT1A6 and UGT1A9 (Homo sapiens, UniProt O60656)", "T2 sequence (O60656 26-530)": "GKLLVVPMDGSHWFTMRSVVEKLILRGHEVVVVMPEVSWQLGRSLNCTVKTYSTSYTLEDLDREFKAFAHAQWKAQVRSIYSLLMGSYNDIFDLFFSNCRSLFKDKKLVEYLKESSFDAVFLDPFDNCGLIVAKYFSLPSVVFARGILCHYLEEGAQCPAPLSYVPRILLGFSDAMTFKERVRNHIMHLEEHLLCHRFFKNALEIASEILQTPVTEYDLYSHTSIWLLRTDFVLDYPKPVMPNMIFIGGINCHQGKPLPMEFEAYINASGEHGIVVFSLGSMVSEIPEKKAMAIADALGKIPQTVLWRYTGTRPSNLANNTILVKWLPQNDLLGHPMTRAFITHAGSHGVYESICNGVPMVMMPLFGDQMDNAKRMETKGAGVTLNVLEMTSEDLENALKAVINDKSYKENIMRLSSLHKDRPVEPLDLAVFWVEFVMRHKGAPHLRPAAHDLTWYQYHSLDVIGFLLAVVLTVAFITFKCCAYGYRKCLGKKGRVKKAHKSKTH", "conditions": "HLMs and UGT1A9, compared with control", "method": "as §1"}, "HeLa cells": {"system": "HeLa cells", "assay": "Glucuronide formation in HeLa cells (control)", "conditions": "HeLa cells without UGT1A9 (control)", "protocol": "HeLa and HeLa—UGT1A9 cells were seeded into six-well plate at a density of 1.0 × 10^5 cells/well, and were grown using Dulbecco’s modified Eagle’smedium (DMEM) supplemented with 10% fetal bovine serum (FBS). After 3 ~ 4 days of seeding, the cells can be used for the glucuronidation experiments.\nBrifely speaking, the cells were incubated at 37°C with loading solution (2 mL). […] The collected samples were mixed with 250 μL acetonitrile containing 25 nM tilianin and then analyzed by UHPLC—MS/MS after centrifugation at 13,000 rpm for 30 min. After the excretion experiment, the cells were washed and selected in 300 μL HBSS buffer, and then the cells were ultrasonicated. After centrifugation at 13,000 rpm for 30 min, the 200 μL supernatant was obtained and mixed with 100 μL acetonitrile containing 25 nM tilianin. The mixture was then centrifuged at 13,000 rpm for 30 min and prepared for subsequent UHPLC—MS/MS analysis."}, "HepG2 cells": {"system": "HepG2 cells", "assay": "MTT assay, HepG2 cells, with and without Ko143", "type": "cell-based", "method": "The cells were further incubated at 37°C with 5% CO2 for 48 h. […] The supernatants were discarded, and 150 μL of dimethyl sulfoxide was added to each well. The plates were shaken for 10 min at room temperature, and then, the stained formazan product was determined at 570 nm with a multimode plate reader."}, "A549 cells": {"system": "A549 cells", "assay": "MTT assay, A549 cells, with and without Ko143", "type": "cell-based", "method": "The cells were further incubated at 37°C with 5% CO2 for 48 h. The culture medium was removed and replaced with 100 μL 0.5 mg/mL 3-(4, 5-dimethylthiozol-2-yl)-3, 5-dipheryl tetrazolium bromide (MTT) solution and incubated at 37°C for 4 h. The supernatants were discarded, and 150 μL of dimethyl sulfoxide was added to each well. The plates were shaken for 10 min at room temperature, and then, the stained formazan product was determined at 570 nm with a multimode plate reader."}, "[3]": {"conditions": "cited from earlier work"}, "[4]": {"conditions": "10 μM substrate with 5 or 10 μM Ko143, 48 h"}, "[5]": {"conditions": "10 μM substrate with 5 μM Ko143, 48 h"}, "[6]": {"conditions": "10 μM substrate with 10 μM Ko143, 48 h"}},
  "data": [
    {"compound": "C=CC1=C(C)/C(=C/c2[nH]c(Cc3[nH]c(/C=C4\\NC(=O)C(C)=C4C=C)c(C)c3CCC(=O)O)c(CCC(=O)O)c2C)NC1=O", "note": "[bilirubin]", "values": [
      {"measurement": "effect on formation of Chr-4′-G", "setting": "[1]", "value": "significantly decrease"}
    ]},
    {"compound": "Cc1ccc(C(C)C)cc1O", "note": "[carvacrol]", "values": [
      {"measurement": "effect on formation of Chr-7-G", "setting": "[2]; substrate chrysoeriol", "value": "significantly decrease"},
      {"measurement": "effect on formation of Dio-3′-G", "setting": "[2]; substrate diosmetin", "value": "significantly decrease"}
    ]},
    {"compound": "COc1cc(-c2cc(=O)c3c(O)cc(O)cc3o2)ccc1O", "note": "[chrysoeriol, 5,7,4′-trihydroxy-3′-methoxyflavone]", "values": [
      {"measurement": "glucuronided metabolites in HeLa cells", "setting": "HeLa cells", "value": "did not find"},
      {"measurement": "change of cytotoxicity when treated with Ko143", "setting": "HepG2 cells; [4]", "value": "little change"},
      {"measurement": "decrease of cell viability compared with substrate alone", "setting": "A549 cells; [5]", "value": 12, "unit": "%"},
      {"measurement": "decrease of cell viability compared with substrate alone", "setting": "A549 cells; [6]", "value": 18, "unit": "%"}
    ]},
    {"compound": "COc1ccc(-c2cc(=O)c3c(O)cc(O)cc3o2)cc1O", "note": "[diosmetin, 5,7,3′-trihydroxy-4′-methoxyflavone]", "values": [
      {"measurement": "decrease of cell viability compared with substrate alone", "setting": "HepG2 cells; [5]", "value": 12, "unit": "%"},
      {"measurement": "decrease of cell viability compared with substrate alone", "setting": "HepG2 cells; [6]", "value": 13, "unit": "%"},
      {"measurement": "change of cytotoxicity when treated with Ko143", "setting": "A549 cells; [4]", "value": "little change"}
    ]},
    {"compound": "acacetin glucuronide", "values": [
      {"measurement": "Km", "setting": "[3]", "value": 14.5, "unit": "µM"}
    ]},
    {"compound": "genistein glucuronides", "values": [
      {"measurement": "Km", "setting": "[3]", "value": 15.1, "unit": "µM"}
    ]}
  ]
}
